Numbers after ± are expanded uncertainties.
Test: activity coefficient (dimensionless); of the first substance listed, at infinite dilution; xn = mol fraction of the nth substance listed
Details: 101 kPa, Liquid, Chromatography, x1 = 0

| SMILES | activity coefficient (308.15 K) | activity coefficient (318.15 K) | activity coefficient (328.15 K) | activity coefficient (338.15 K) | activity coefficient (348.15 K) | activity coefficient (358.15 K) | activity coefficient (368.15 K) | activity coefficient (378.15 K) |
| --- | --- | --- | --- | --- | --- | --- | --- | --- |
| CCCCCCC [heptane] + O=S(=O)([N-]S(=O)(=O)C(F)(F)F)C(F)(F)F.OCCC[n+]1ccccc1 | 82 ± 5.6 | 73.8 ± 5.1 | 66.2 ± 4.5 | 59.3 ± 4.1 | 54.3 ± 3.7 | 49.4 ± 3.4 | 45.8 ± 3.1 | – |
| C=CCCCC [hex-1-ene] + O=S(=O)([N-]S(=O)(=O)C(F)(F)F)C(F)(F)F.OCCC[n+]1ccccc1 | 22.7 ± 1.6 | 21.2 ± 1.4 | 19.7 ± 1.3 | 18.4 ± 1.3 | 17.3 ± 1.2 | 16.4 ± 1.1 | – | – |
| CCCCCC [hexane] + O=S(=O)([N-]S(=O)(=O)C(F)(F)F)C(F)(F)F.OCCC[n+]1ccccc1 | 51.3 ± 3.5 | 46.7 ± 3.2 | 42.3 ± 2.9 | 38.5 ± 2.6 | 35.6 ± 2.4 | 32.8 ± 2.2 | – | – |
| CO [methanol] + O=S(=O)([N-]S(=O)(=O)C(F)(F)F)C(F)(F)F.OCCC[n+]1ccccc1 | – | 0.87 ± 0.056 | 0.836 ± 0.054 | 0.804 ± 0.052 | 0.776 ± 0.051 | 0.749 ± 0.049 | 0.725 ± 0.048 | 0.703 ± 0.047 |
| CC1CCCCC1 [methylcyclohexane] + O=S(=O)([N-]S(=O)(=O)C(F)(F)F)C(F)(F)F.OCCC[n+]1ccccc1 | 38.7 ± 2.6 | 35.2 ± 2.4 | 31.9 ± 2.2 | 29 ± 2 | 26.8 ± 1.8 | 24.7 ± 1.7 | 22.9 ± 1.6 | – |
| CCCCCCCCC [nonane] + O=S(=O)([N-]S(=O)(=O)C(F)(F)F)C(F)(F)F.OCCC[n+]1ccccc1 | 206 ± 14 | 181 ± 12 | 157 ± 11 | 139 ± 10 | 125 ± 9 | 111 ± 8 | 99.7 ± 6.8 | – |
| C=CCCCCCC [oct-1-ene] + O=S(=O)([N-]S(=O)(=O)C(F)(F)F)C(F)(F)F.OCCC[n+]1ccccc1 | 58 ± 4 | 53 ± 3.6 | 48.5 ± 3.3 | 44.4 ± 3 | 41.1 ± 2.8 | 38.1 ± 2.6 | 35.6 ± 2.4 | – |
| CCCCCCCC [octane] + O=S(=O)([N-]S(=O)(=O)C(F)(F)F)C(F)(F)F.OCCC[n+]1ccccc1 | 130 ± 9 | 116 ± 8 | 102 ± 7 | 91.1 ± 6.2 | 81.3 ± 5.6 | 73.6 ± 5 | 67.5 ± 4.6 | – |
| CCCC(C)=O [pentan-2-one] + O=S(=O)([N-]S(=O)(=O)C(F)(F)F)C(F)(F)F.OCCC[n+]1ccccc1 | – | 0.885 ± 0.056 | 0.91 ± 0.058 | 0.937 ± 0.059 | 0.96 ± 0.06 | 0.984 ± 0.062 | 1.01 ± 0.06 | 1.03 ± 0.06 |
| CCC(=O)CC [pentan-3-one] + O=S(=O)([N-]S(=O)(=O)C(F)(F)F)C(F)(F)F.OCCC[n+]1ccccc1 | – | 0.936 ± 0.059 | 0.963 ± 0.061 | 0.991 ± 0.062 | 1.02 ± 0.06 | 1.04 ± 0.07 | 1.07 ± 0.07 | 1.09 ± 0.07 |
| CCCCC [pentane] + O=S(=O)([N-]S(=O)(=O)C(F)(F)F)C(F)(F)F.OCCC[n+]1ccccc1 | 32.9 ± 2.3 | 30.2 ± 2.1 | 27.9 ± 1.9 | 25.8 ± 1.8 | 24.3 ± 1.7 | – | – | – |
| CCCO [propan-1-ol] + O=S(=O)([N-]S(=O)(=O)C(F)(F)F)C(F)(F)F.OCCC[n+]1ccccc1 | – | 1.6 ± 0.11 | 1.52 ± 0.1 | 1.46 ± 0.1 | 1.39 ± 0.09 | 1.34 ± 0.09 | 1.28 ± 0.08 | 1.24 ± 0.08 |
| C1CCOC1 [tetrahydrofuran] + O=S(=O)([N-]S(=O)(=O)C(F)(F)F)C(F)(F)F.OCCC[n+]1ccccc1 | – | 0.695 ± 0.047 | 0.727 ± 0.048 | 0.757 ± 0.05 | 0.784 ± 0.051 | 0.812 ± 0.053 | 0.839 ± 0.054 | 0.866 ± 0.055 |
| c1ccsc1 [thiophene] + O=S(=O)([N-]S(=O)(=O)C(F)(F)F)C(F)(F)F.OCCC[n+]1ccccc1 | – | 1.27 ± 0.08 | 1.28 ± 0.08 | 1.29 ± 0.08 | 1.29 ± 0.08 | 1.3 ± 0.08 | 1.31 ± 0.09 | 1.31 ± 0.09 |
| Cc1ccccc1 [toluene] + O=S(=O)([N-]S(=O)(=O)C(F)(F)F)C(F)(F)F.OCCC[n+]1ccccc1 | – | 2.36 ± 0.16 | 2.37 ± 0.16 | 2.38 ± 0.16 | 2.39 ± 0.16 | 2.4 ± 0.16 | 2.41 ± 0.16 | 2.42 ± 0.16 |
| O [water] + O=S(=O)([N-]S(=O)(=O)C(F)(F)F)C(F)(F)F.OCCC[n+]1ccccc1 | – | 1.53 ± 0.1 | 1.42 ± 0.09 | 1.33 ± 0.09 | 1.24 ± 0.08 | 1.17 ± 0.07 | 1.1 ± 0.07 | 1.03 ± 0.06 |
